# System: neutrophils
# Test: Tail transection injury in transgenic MPO:GFP zebrafish larvae, neutrophil counts at the site of injury
# Type: in vivo
# Source text: AB strain zebrafish from existing aquarium stocks were maintained according to standard protocols. A BAC containing approx 130 kB of 5′ promoter sequence to the MPO gene was identified (zC91B8). This BAC was modified to contain an in-frame GFP sequence beginning at the translation start site of the MPO gene by recombinase activity as previously described (Lee, E. C. et al (2001) Genomics 73, 56-65). EL250 cells required for the recombination step were a kind gift of Dr. Neal Copeland, National Cancer Institute, Frederick, […]., USA. Insertion of the GFP sequence was confirmed by co-insertion of a kanamycin resistance gene, which in turn was flanked by FRT sites leading to its easy removal before introduction into the zebrafish. As part of this process a vector was created consisting of a truncated portion of the Bluescript vector, into which we had blunt cloned a construct consisting of GFP and the FRT-flanked Kanamycin resistance gene, all of which was flanked by MPO homology arms. Using this construct, we were able to add a Nuclear Localising Sequence corresponding to that used in the Clontech vector pEYFPnuc by PCR and self ligation.
# The modified BACs were injected into fertilised AB zebrafish embryos at the 1-2 cell stage, and larvae screened at 36-48 hours for the presence of fluorescence. Fluorescent larvae were grown to maturity and either in- or out-crossed to identify germ cell carriage of the transgene.
# A BAC containing over 100 kb of sequence 5′ to the Zebrafish MPO promoter was identified and modified to contain an in frame GFP sequence (FIG. 3). This was then injected into zebrafish embryos at the 1-cell stage and a transgenic line created. GFP expression recapitulates the expression of myeloperoxidase in cells whose morphology is consistent with neutrophil granulocytes (see FIG. 4). When these fish are injured, neutrophils accumulate at the site of injury over time (FIGS. 5 and 6).
# Neutrophil number at the site of injury following tail transection can be assessed either by manual counting (FIG. 7a) or by automated image analysis (FIG. 7b).
# Manipulation of the inflammatory response in transgenic zebrafish has been performed exemplifying the role of manipulation of granulocyte apoptosis in regulating the resolution of inflammation. […] P<0.05 for t=24, zVD.fmk treated vs all other groups (1 way ANOVA with Bonferroni post test correction).
# In FIG. 8b counts of fluorescent cells in individual larvae were performed for fish in the presence or absence of the bacterial product Lipopolysaccharide (LPS). LPS was added at 6 hours post injury (hpi), and counts made at 6 and 24 hpi. […] In FIG. 8c, Pyocyanin (a bacterial pigment with pro-apoptotic effects on neutrophils) was added at 4 hpi, and counts made at 8 hpi.
molecule,measurement,setting,value
Cn1c2cccc(=O)c-2nc2ccccc21 [Pyocyanin],absolute cell counts (neutrophil numbers),"added at 4 hpi, counts at 8 hpi, FIG. 8c",reduce neutrophil numbers
CC(C)[C@H](NC(=O)OCc1ccccc1)C(=O)NC(CC(=O)O)C(=O)CF (stereo partly shown) [zVD.fmk],neutrophil numbers at the inflammatory site (resolution of inflammation),"between 6 hours and 24 hours after injury, FIG. 8a, P<0.05 at t=24 vs all other groups",persistence of neutrophil numbers
same,effect on granulocyte apoptosis,"transgenic zebrafish, FIG. 8a",delays apoptosis
Lipopolysaccharide [LPS],% reduction in neutrophil numbers,"added at 6 hpi, counts at 6 and 24 hpi, vs untreated fish, p<0.05, FIG. 8b",significantly lower
